Measured values published in patent US9120744B2, “Plasminogen activator inhibitor-1 inhibitors and methods of use thereof to modulate lipid metabolism” (THE REGENTS OF THE UNIVERSITY OF MICHIGAN, priority 2007, dated 2015).
Where a SMILES comes first, the peptide text is derived from it. [ ]: non-standard residue; d: D form. The star is where a group is joined. Tyr(3-NO2) = N[C@@H](Cc1ccc(O)c([N+](=O)[O-])c1)C(=O)O; Boc = CC(C)(C)OC(=O)*

Columns and labels:
[1] = biological target: T1, recombinant active human PAI-1 (Homo sapiens (Human), UniProt P05121); test: Fluorometric IC50 plate assay (PAI-1 inhibition of uPA, Z-Gly-Gly-Arg-AMC); format: biochemical; conditions: in vitro, PAI-1 1 nM, uPA 2.5 nM, pH 7.8, 10% DMSO; ND = not detected, e.g. no inhibition
[2] = biological target: T1, recombinant active human PAI-1; test: pH dependence of PAI-1 inhibition, fluorogenic uPA (or tPA) assay; format: biochemical; conditions: for PAI-1 inhibitory efficacy (in words): pH 7.5 (FIG. 8), additional experiments; for effect of pH on PAI-1 inhibition (in words): pH 6.5 to 8.5
[3] = biological target: T2, PAI-1 (Homo sapiens (Human), UniProt P05121); test: Surface plasmon resonance, loss of PAI-1 binding to immobilized anhydrotrypsin; conditions: PAI-1 2 nM preincubated with compound, SPR; read-out: Apparent KD (nM) ± SEM
[4] = biological target: T1, recombinant active human PAI-1; test: High throughput uPA chromogenic screen for PAI-1 inactivators; format: biochemical; conditions: 10 μM compound; hit = more than 3 standard deviations above control
[5] = biological target: T1, recombinant active human PAI-1; test: Chromogenic uPA assay of PAI-1 inhibition (pGlu-Gly-Arg pNA); format: biochemical
[6] = biological target: recombinant active human PAI-1 preincubated with vitronectin (Homo sapiens (Human), UniProt P05121); test: Inhibition of vitronectin-bound PAI-1 by tannic acid, chromogenic uPA assay; format: biochemical; conditions: 5-fold molar excess of vitronectin
[7] = biological target: T2, PAI-1; test: SDS-PAGE analysis of PAI-1:plasminogen activator complex formation; format: biochemical; conditions: tannic acid 0-100 μM, uPA or tPA
[8] = biological target: active mouse PAI-1 (Mus musculus (Mouse), UniProt P22777); test: Ex vivo plasma Luminex assay, mouse plasma spiked with active mouse PAI-1; format: biochemical; conditions: mouse plasma spiked with active mouse PAI-1 3-4 ng/mL
[9] = biological target: T1, recombinant active human PAI-1; test: β-trypsin screening assay for PAI-1 inhibitors; format: biochemical; conditions: 10 μM compound; hit = more than 3 standard deviations above control;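 further: fluorogenic readout with PAI-1 and β-trypsin at 10:1 molar ratio, untreated PAI-1 wells set as 100% PAI-1 activity and β-trypsin alone as 0%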

T2 sequence (P05121 24-402): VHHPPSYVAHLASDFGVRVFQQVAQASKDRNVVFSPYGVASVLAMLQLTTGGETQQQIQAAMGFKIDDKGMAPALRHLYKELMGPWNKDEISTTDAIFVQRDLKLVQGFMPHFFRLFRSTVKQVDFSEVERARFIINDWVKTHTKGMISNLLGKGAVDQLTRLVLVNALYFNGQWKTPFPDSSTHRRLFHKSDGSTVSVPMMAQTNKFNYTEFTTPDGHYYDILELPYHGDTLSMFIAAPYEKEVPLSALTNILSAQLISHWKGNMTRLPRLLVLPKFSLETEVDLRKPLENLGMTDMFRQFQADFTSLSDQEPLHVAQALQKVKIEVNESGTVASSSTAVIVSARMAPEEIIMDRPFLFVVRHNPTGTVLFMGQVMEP
T1 sequence (P05121 24-402): as above
Sequence of active mouse PAI-1 (P22777 23-402): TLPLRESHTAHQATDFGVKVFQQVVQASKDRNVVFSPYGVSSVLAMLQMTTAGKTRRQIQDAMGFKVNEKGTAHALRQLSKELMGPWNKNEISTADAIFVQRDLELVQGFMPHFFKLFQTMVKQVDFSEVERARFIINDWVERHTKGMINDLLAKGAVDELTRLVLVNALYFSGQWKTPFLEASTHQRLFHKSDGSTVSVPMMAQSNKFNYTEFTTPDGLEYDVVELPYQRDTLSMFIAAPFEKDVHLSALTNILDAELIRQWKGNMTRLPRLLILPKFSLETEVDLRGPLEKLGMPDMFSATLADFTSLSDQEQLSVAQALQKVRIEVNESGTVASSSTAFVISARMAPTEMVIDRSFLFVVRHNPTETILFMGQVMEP
Sequence of recombinant active human PAI-1 preincubated with vitronectin (P05121 24-402): as the sequence (P05121 24-402) above
Sequence of recombinant active human PAI-1 preincubated with vitronectin (P04004 20-478 partner): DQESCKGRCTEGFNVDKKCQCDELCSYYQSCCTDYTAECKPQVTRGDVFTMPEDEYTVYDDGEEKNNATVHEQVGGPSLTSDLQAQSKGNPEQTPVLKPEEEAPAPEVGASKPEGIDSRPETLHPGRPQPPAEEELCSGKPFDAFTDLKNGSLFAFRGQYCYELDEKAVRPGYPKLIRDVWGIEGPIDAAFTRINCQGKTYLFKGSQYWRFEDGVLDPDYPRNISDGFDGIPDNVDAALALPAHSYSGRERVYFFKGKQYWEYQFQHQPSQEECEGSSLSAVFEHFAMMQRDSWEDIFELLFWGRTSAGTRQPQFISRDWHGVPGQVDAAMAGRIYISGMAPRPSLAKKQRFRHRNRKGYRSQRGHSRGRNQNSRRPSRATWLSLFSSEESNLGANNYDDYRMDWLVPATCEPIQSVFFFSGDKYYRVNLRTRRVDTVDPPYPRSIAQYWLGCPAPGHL

## CN(N(C)S(=O)(=O)c1ccc(O)c(O)c1)S(=O)(=O)c1ccc(O)c(O)c1 [CDE-068]
[1]
  IC50: 32.7 µM

## O=C(OCCOC(=O)c1cccc(OC(=O)c2cc(O)c(O)c(O)c2)c1)c1cccc(OC(=O)c2cc(O)c(O)c(O)c2)c1 [CDE-041]
[1]
  IC50: 47.9 µM

## O=C(O[C@H]1CC[C@@H](OC(=O)c2cc(O)c(O)c(O)c2)CC1)c1cc(O)c(O)c(O)c1 [CDE-061]
[1]
  IC50: 0.05 µM

## O=C(OCCOC(=O)c1ccc(O)cc1O)c1ccc(O)cc1O [CDE-051]
[1]
  IC50: 28.7 µM

## O=C(O[C@H]1CC[C@H](OC(=O)c2cc(O)c(O)c(O)c2)CC1)c1cc(O)c(O)c(O)c1 [CDE-062]
[1]
  IC50: 332 µM

## O=C(c1cc(O)c(O)c(O)c1)N1CCN(C(=O)c2cc(O)c(O)c(O)c2)CC1 [CDE-055]
[1]
  IC50: 27.5 µM

## O=C(OCCOCCOCCOCCOC(=O)c1cc(O)c(O)c(O)c1)c1cc(O)c(O)c(O)c1 [CDE-011]
[1]
  IC50: 338 µM
[2]
  PAI-1 inhibitory efficacy (in words): effective PAI-1 inhibitors

## O=C(OCCOCCOCCOC(=O)c1cc(O)c(O)c(O)c1)c1cc(O)c(O)c(O)c1 [CDE-012]
[1]
  IC50: 196 µM
[2]
  PAI-1 inhibitory efficacy (in words): effective PAI-1 inhibitors

## O=C(OCCCOC(=O)c1cc(O)c(O)c(O)c1)c1cc(O)c(O)c(O)c1 [CDE-013]
[1]
  IC50: 7.85 µM
[2]
  PAI-1 inhibitory efficacy (in words): effective PAI-1 inhibitors

## O=C(Oc1ccccc1OC(=O)c1cc(O)c(O)c(O)c1)c1cc(O)c(O)c(O)c1 [CDE-056]
[3]
  Kd: 51 ± 6 nM
[1]
  IC50: 2.96 µM

## CC(C)(COC(=O)c1cc(O)c(O)c(O)c1)COC(=O)c1cc(O)c(O)c(O)c1 [CDE-067]
[1]
  IC50: 48.3 µM

## O=C(NCCNC(=O)c1cc(O)c(O)c(O)c1)c1cc(O)c(O)c(O)c1 [CDE-044]
[1]
  IC50: 900 µM

## O=C(OC[C@H]1O[C@@H](OC(=O)c2cc(O)c(O)c(OC(=O)c3cc(O)c(O)c(O)c3)c2)[C@H](OC(=O)c2cc(O)c(O)c(OC(=O)c3cc(O)c(O)c(O)c3)c2)[C@@H](OC(=O)c2cc(O)c(O)c(OC(=O)c3cc(O)c(O)c(O)c3)c2)[C@@H]1OC(=O)c1cc(O)c(O)c(OC(=O)c2cc(O)c(O)c(O)c2)c1)c1cc(O)c(O)c(OC(=O)c2cc(O)c(O)c(O)c2)c1 [Tannic acid, tannic acid]
[4]
  screening hit: restoration of uPA activity: positive hits
[5]; some experiments (not shown in FIG. 2)
  IC50: 2.5 µM
[6]
  inhibition of vitronectin-bound PAI-1 (in words): inhibited PAI-1 activity even when bound to vitronectin
[7]
  effect on PAI-1:PA complex formation (in words): converts PAI-1 to a substrate for PAs
[2]; pH 6.5
  IC50: 7.36 µM
[2]
  effect of pH on PAI-1 inhibition (in words): improved by increasing pH
[2]; pH 7.5
  IC50: 7.15 µM
[2]; pH 8.5
  IC50: 0.0091 µM
[8]
  IC50: 9.68 µM
[9]
  screening hit: restoration of β-trypsin activity: demonstrate PAI-1 inhibitor activity

## CC(C)(C)OC(=O)N[C@@H](Cc1ccc(O)c([N+](=O)[O-])c1)C(=O)N[C@@H](Cc1ccc(O)c([N+](=O)[O-])c1)C(=O)O [CDE-035] (Boc-[Tyr(3-NO2)]-[Tyr(3-NO2)]-OH)
[1]
  IC50: 146 µM

## CCN(CCN(CC)S(=O)(=O)c1ccc(O)c(O)c1)S(=O)(=O)c1ccc(O)c(O)c1 [CDE-032]
[1]
  IC50: 10.2 µM
[2]
  effect of pH on PAI-1 inhibition (in words): increased with increasing pH
  PAI-1 inhibitory efficacy (in words): effective inhibitors of PAI-1

## O=C(Oc1cc(O)cc2c1C[C@@H](OC(=O)c1cc(O)c(O)c(O)c1)[C@@H](c1cc(O)c(O)c(O)c1)O2)c1cc(O)c(O)c(O)c1 [epigallocatechin 3,5 digallate]
[4]
  screening hit: restoration of uPA activity: positive hits

## O=S(=O)(NNS(=O)(=O)c1ccc(O)c(O)c1)c1ccc(O)c(O)c1 [CDE-059]
[1]
  IC50: 0.09 µM
[8]
  IC50: 973 µM

## O=C(NCCCNC(=O)c1cc(O)c(O)c(O)c1)c1cc(O)c(O)c(O)c1 [CDE-070]
[1]
  IC50: 269 µM

## CC(C)(C)OC(=O)NCC(COC(=O)c1cc(O)c(O)c(O)c1)OC(=O)c1cc(O)c(O)c(O)c1 (stereo not shown) [CDE-075]
[1]
  IC50: 0.07 µM

## O=S(=O)(c1ccc(O)c(O)c1)N1CCCCN1S(=O)(=O)c1ccc(O)c(O)c1 [CDE-074]
[1]
  IC50: 1.71 µM

## O=S(=O)(NNS(=O)(=O)c1ccc(O)cc1)c1ccc(O)cc1 [CDE-072]
[1]
  IC50: 104 µM

## O=C(O[C@@H]1CCCC[C@H]1OC(=O)c1cc(O)c(O)c(O)c1)c1cc(O)c(O)c(O)c1 [CDE-034]
[3]
  Kd: 67 ± 3 nM
[1]
  IC50: 1.17 µM

## COc1cc(C(=O)OCCOC(=O)c2cc(OC)c(O)c(OC)c2)cc(OC)c1O [CDE-069]
[1]
  IC50: 562 µM

## Oc1c(Cl)cc(Cl)c(Cl)c1Cc1c(O)c(Cl)cc(Cl)c1Cl [hexachlorophene]
[2]
  effect of pH on PAI-1 inhibition (in words): did not improve at pH 8.5 compared to pH 7.5
[9]
  screening hit: restoration of β-trypsin activity: demonstrate PAI-1 inhibitor activity

## O=C(O)c1cc(O)c(O)c(O)c1 [gallic acid]
[5]; FIG. 2
  fold less active toward PAI-1 than tannic acid: approximately 1000 fold
[5]; other data (not shown)
  fold less active toward PAI-1 than tannic acid: up to 4000 fold
[2]
  effect of pH on PAI-1 inhibition (in words): increased with increasing pH to 8.5

## CCOC(=O)[C@H](Cc1ccc(O)c([N+](=O)[O-])c1)NC(=O)[C@H](Cc1ccc(O)c([N+](=O)[O-])c1)NC(=O)OC(C)(C)C [CDE-033] (Boc-[Tyr(3-NO2)]-[Tyr(3-NO2)]-OEt)
[1]
  IC50: 246 µM

## COc1cc(C(=O)N2CCN(C(=O)c3cc(OC)c(O)c(OC)c3)CC2)cc(OC)c1O [CDE-065]
[1]
  IC50: 423 µM

## O=C(OCCOCCOC(=O)c1cc(O)c(O)c(O)c1)c1cc(O)c(O)c(O)c1 [CDE-009]
[1]
  IC50: 49.3 µM
[2]
  PAI-1 inhibitory efficacy (in words): effective PAI-1 inhibitors

## O=S(=O)(NCCNS(=O)(=O)c1ccc(O)c(O)c1)c1ccc(O)c(O)c1 [CDE-021]
[1]
  IC50: 450 µM
[2]
  effect of pH on PAI-1 inhibition (in words): increased with increasing pH
  PAI-1 inhibitory efficacy (in words): effective inhibitors of PAI-1

## COc1cc(C(=O)N(C)CCN(C)C(=O)c2cc(OC)c(O)c(OC)c2)cc(OC)c1O [CDE-064]
[1]
  IC50: 2200 µM

## O=C(O[C@@H]1CCC[C@H](OC(=O)c2cc(O)c(O)c(O)c2)C1)c1cc(O)c(O)c(O)c1 [CDE-057]
[1]
  IC50: 195 µM

## O=C(OCC(COC(=O)c1cc(O)c(O)c(O)c1)OC(=O)c1cc(O)c(O)c(O)c1)c1cc(O)c(O)c(O)c1 [CDE-082]
[3]
  Kd: 5.3 ± 0.2 nM

## O=C(O[C@H]1CCCC[C@H]1OC(=O)c1cc(O)c(O)c(O)c1)c1cc(O)c(O)c(O)c1 [CDE-031]
[3]
  Kd: 31 ± 2 nM
[1]
  IC50: 0.28 µM
[2]
  effect of pH on PAI-1 inhibition (in words): increased with increasing pH
  PAI-1 inhibitory efficacy (in words): effective inhibitors of PAI-1

## O=C(OC[C@H]1O[C@H](OC(=O)c2cc(O)c(O)c(O)c2)[C@H](OC(=O)c2cc(O)c(O)c(O)c2)[C@@H](OC(=O)c2cc(O)c(O)c(O)c2)[C@H]1OC(=O)c1cc(O)c(O)c(O)c1)c1cc(O)c(O)c(O)c1 [CDE-003]
[2]
  PAI-1 inhibitory efficacy (in words): effective PAI-1 inhibitors

## O=C(NCCNC(=O)c1ccc(O)c([N+](=O)[O-])c1)c1ccc(O)c([N+](=O)[O-])c1 [CDE-060]
[1]
  IC50: 236 µM

## CC(C)(C)OC(=O)N[C@@H](Cc1ccc(O)c([N+](=O)[O-])c1)C(=O)O [CDE-028]
[1]
  IC50: 386 µM
[2]
  effect of pH on PAI-1 inhibition (in words): increased with increasing pH
  PAI-1 inhibitory efficacy (in words): effective inhibitors of PAI-1
